In patent US10772893B2, “2-(morpholin-4-yl)-1,7-naphthyridines” (BAYER PHARMA AKTIENGESELLSCHAFT, priority 2014, dated 2020) one finds IC50 data, which are given here for 34 molecules.

The subject of the assay is HeLa cells. The assay can be described thus: Proliferation assay, crystal violet staining. The note with it: Homo sapiens, 96 h, read-out: Inhibition of HeLa cell proliferation, HeLa cells, 4 days incubation.

As to `C[C@@H]1COCCN1c1cc(-c2cccnc2F)c2ccnc(-c3ccn[nH]3)c2n1` [Example 89, 4-(2-fluoropyridin-3-yl)-2-[(3R)-3-methylmorpholin-4-yl]-8-(1H-pyrazol-5-yl)-1,7-naphthyridine], the IC50 amounted to 0.142 µM.
Next, `Cc1ccnc(F)c1-c1cc(N2CCOC[C@H]2C)nc2c(-c3ccn[nH]3)nccc12` [Example 90, 4-(2-fluoro-4-methylpyridin-3-yl)-2-[(3R)-3-methylmorpholin-4-yl]-8-(1H-pyrazol-5-yl)-1,7-naphthyridine]: 0.092 µM; `C[C@@H]1COCCN1c1cc(-c2cccn2C)c2ccnc(-c3ccn[nH]3)c2n1` [Example 91, 2-[(3R)-3-methylmorpholin-4-yl]-4-(1-methyl-1H-pyrrol-2-yl)-8-(1H-pyrazol-5-yl)-1,7-naphthyridine]: 0.108 µM; `Cc1cc(-c2cc(N3CCOC[C@H]3C)nc3c(-c4ccn[nH]4)nccc23)cnc1F` [Example 92, 4-(6-fluoro-5-methylpyridin-3-yl)-2-[(3R)-3-methylmorpholin-4-yl]-8-(1H-pyrazol-5-yl)-1,7-naphthyridine]: 0.117 µM.
For the molecule `Cc1ccc(-c2cc(N3CCOC[C@H]3C)nc3c(-c4ccn[nH]4)nccc23)c(F)n1` [Example 93, 4-(2-fluoro-6-methylpyridin-3-yl)-2-[(3R)-3-methylmorpholin-4-yl]-8-(1H-pyrazol-5-yl)-1,7-naphthyridine], the IC50 worked out at 0.179 µM.
Next, `C[C@@H]1COCCN1c1cc(-c2ccc(F)nc2)c2ccnc(-c3ccn[nH]3)c2n1` [Example 94, 4-(6-fluoropyridin-3-yl)-2-[(3R)-3-methylmorpholin-4-yl]-8-(1H-pyrazol-5-yl)-1,7-naphthyridine]: 0.268 µM.
Under `COc1ccc(-c2cc(N3CCOC[C@H]3C)nc3c(-c4ccn[nH]4)nccc23)cn1` [Example 95, 4-(6-methoxypyridin-3-yl)-2-[(3R)-3-methylmorpholin-4-yl]-8-(1H-pyrazol-5-yl)-1,7-naphthyridine] stands 0.211 µM; under `COc1ncc(-c2cc(N3CCOC[C@H]3C)nc3c(-c4ccn[nH]4)nccc23)cc1C` [Example 96, 4-(6-methoxy-5-methylpyridin-3-yl)-2-[(3R)-3-methylmorpholin-4-yl]-8-(1H-pyrazol-5-yl)-1,7-naphthyridine], 0.169 µM.
Next, `Cc1nc(F)ccc1-c1cc(N2CCOC[C@H]2C)nc2c(-c3ccn[nH]3)nccc12` [Example 97, 4-(6-fluoro-2-methylpyridin-3-yl)-2-[(3R)-3-methylmorpholin-4-yl]-8-(1H-pyrazol-5-yl)-1,7-naphthyridine]: 0.252 µM; `C[C@@H]1COCCN1c1cc(-c2cc(C(F)(F)F)nn2C)c2ccnc(-c3ccn[nH]3)c2n1` [Example 98, 2-[(3R)-3-methylmorpholin-4-yl]-4-[1-methyl-3-(trifluoromethyl)-1H-pyrazol-5-yl]-8-(1H-pyrazol-5-yl)-1,7-naphthyridine]: 0.44 µM; `Cc1ccsc1-c1cc(N2CCOC[C@H]2C)nc2c(-c3ccn[nH]3)nccc12` [Example 99, 2-[(3R)-3-methylmorpholin-4-yl]-4-(3-methyl-2-thienyl)-8-(1H-pyrazol-5-yl)-1,7-naphthyridine]: 0.4 µM.
On to `Cc1ccc(-c2cc(N3CCOC[C@H]3C)nc3c(-c4ccn[nH]4)nccc23)s1` [Example 100, 2-[(3R)-3-methylmorpholin-4-yl]-4-(5-methyl-2-thienyl)-8-(1H-pyrazol-5-yl)-1,7-naphthyridine], for which the IC50 amounted to 0.95 µM.
Under `Cc1cscc1-c1cc(N2CCOC[C@H]2C)nc2c(-c3ccn[nH]3)nccc12` [Example 101, 2-[(3R)-3-methylmorpholin-4-yl]-4-(4-methyl-3-thienyl)-8-(1H-pyrazol-5-yl)-1,7-naphthyridine] stands 0.341 µM; under `C[C@@H]1COCCN1c1cc(-c2sccc2Cl)c2ccnc(-c3ccn[nH]3)c2n1` [Example 102, 4-(3-chloro-2-thienyl)-2-[(3R)-3-methylmorpholin-4-yl]-8-(1H-pyrazol-5-yl)-1,7-naphthyridine], 0.604 µM.
Next, `Cc1sccc1-c1cc(N2CCOC[C@H]2C)nc2c(-c3ccn[nH]3)nccc12` [Example 103, 2-[(3R)-3-methylmorpholin-4-yl]-4-(2-methyl-3-thienyl)-8-(1H-pyrazol-5-yl)-1,7-naphthyridine]: 0.374 µM; `C[C@@H]1COCCN1c1cc(-c2ccnc3[nH]ccc23)c2ccnc(-c3ccn[nH]3)c2n1` [Example 104, 2-[(3R)-3-methylmorpholin-4-yl]-8-(1H-pyrazol-5-yl)-4-(1H-pyrrolo[2,3-b]pyridin-4-yl)-1,7-naphthyridine]: 0.499 µM.
Under `Cc1noc(C)c1-c1cc(N2CCOC[C@H]2C)nc2c(-c3ccn[nH]3)nccc12` [Example 105, 4-(3,5-dimethyl-1,2-oxazol-4-yl)-2-[(3R)-3-methylmorpholin-4-yl]-8-(1H-pyrazol-5-yl)-1,7-naphthyridine] stands 1 µM; under `COc1nccc(-c2cc(N3CCOC[C@H]3C)nc3c(-c4ccn[nH]4)nccc23)c1Cl` [Example 106, 4-(3-chloro-2-methoxypyridin-4-yl)-2-[(3R)-3-methylmorpholin-4-yl]-8-(1H-pyrazol-5-yl)-1,7-naphthyridine], 0.434 µM; under `C[C@@H]1COCCN1c1cc(C2CCOCC2)c2ccnc(-c3ccn[nH]3)c2n1` [Example 107, 2-[(3R)-3-methylmorpholin-4-yl]-8-(1H-pyrazol-5-yl)-4-(tetrahydro-2H-pyran-4-yl)-1,7-naphthyridine], 0.306 µM.
In the case of `C[C@@H]1COCCN1c1cc(C2=CCSCC2)c2ccnc(-c3ccn[nH]3)c2n1` [Example 108, 4-(3,6-dihydro-2H-thiopyran-4-yl)-2-[(3R)-3-methylmorpholin-4-yl]-8-(1H-pyrazol-5-yl)-1,7-naphthyridine], the IC50 was 0.456 µM.
Take `CC1CCN(c2cc(N3CCOC[C@H]3C)nc3c(-c4ccn[nH]4)nccc23)CC1` [Example 109, 2-[(3R)-3-methylmorpholin-4-yl]-4-(4-methylpiperidin-1-yl)-8-(1H-pyrazol-5-yl)-1,7-naphthyridine]: the IC50 worked out at 0.298 µM.
Under `C[C@@H]1COCCN1c1cc(-c2ccnn2C(C)(C)C)c2ccnc(-c3ccn[nH]3)c2n1` [Example 110, 4-(1-tert-butyl-1H-pyrazol-5-yl)-2-[(3R)-3-methylmorpholin-4-yl]-8-(1H-pyrazol-5-yl)-1,7-naphthyridine] stands 0.206 µM; under `Cc1cc(-c2cc(N3CCOC[C@H]3C)nc3c(-c4ccn[nH]4)nccc23)on1` [Example 112, 2-[(3R)-3-methylmorpholin-4-yl]-4-(3-methyl-1,2-oxazol-5-yl)-8-(1H-pyrazol-5-yl)-1,7-naphthyridine], 0.0995 µM.
Under `CCn1nc(C)cc1-c1cc(N2CCOC[C@H]2C)nc2c(-c3ccn[nH]3)nccc12` [Example 113, 4-(1-ethyl-3-methyl-1H-pyrazol-5-yl)-2-[(3R)-3-methylmorpholin-4-yl]-8-(1H-pyrazol-5-yl)-1,7-naphthyridine] stands 0.122 µM; under `Cc1cnn(C)c1-c1cc(N2CCOC[C@H]2C)nc2c(-c3ccn[nH]3)nccc12` [Example 114, 4-(1,4-dimethyl-1H-pyrazol-5-yl)-2-[(3R)-3-methylmorpholin-4-yl]-8-(1H-pyrazol-5-yl)-1,7-naphthyridine], 0.177 µM; under `CSc1ccc(-c2cc(N3CCOC[C@H]3C)nc3c(-c4ccn[nH]4)nccc23)c(C)n1` [Example 115, 4-[2-methyl-6-(methylsulfanyl)pyridin-3-yl]-2-[(3R)-3-methylmorpholin-4-yl]-8-(1H-pyrazol-5-yl)-1,7-naphthyridine], 0.199 µM.
Next, `Cc1nc(S(C)(=N)=O)ccc1-c1cc(N2CCOC[C@H]2C)nc2c(-c3ccn[nH]3)nccc12` (stereo partly drawn) [Example 116, 4-[2-methyl-6-(S-methylsulfonimidoyl)pyridin-3-yl]-2-[(3R)-3-methylmorpholin-4-yl]-8-(1H-pyrazol-5-yl)-1,7-naphthyridine]: 0.284 µM.
Regarding `CCCn1nccc1-c1cc(N2CCOC[C@H]2C)nc2c(-c3ccn[nH]3)nccc12` [Example 117, 2-[(3R)-3-methylmorpholin-4-yl]-4-(1-propyl-1H-pyrazol-5-yl)-8-(1H-pyrazol-5-yl)-1,7-naphthyridine], the IC50 was found to be 0.225 µM.
Next, `C[C@@H]1COCCN1c1cc(-c2cnc3n2CCC3)c2ccnc(-c3ccn[nH]3)c2n1` [Example 118, 4-(6,7-dihydro-5H-pyrrolo[1,2-a]imidazol-3-yl)-2-[(3R)-3-methylmorpholin-4-yl]-8-(1H-pyrazol-5-yl)-1,7-naphthyridine]: 0.171 µM.
Under `CCn1nc(C(F)(F)F)cc1-c1cc(N2CCOC[C@H]2C)nc2c(-c3ccn[nH]3)nccc12` [Example 119, 4-[1-ethyl-3-(trifluoromethyl)-1H-pyrazol-5-yl]-2-[(3R)-3-methylmorpholin-4-yl]-8-(1H-pyrazol-5-yl)-1,7-naphthyridine] stands 0.425 µM; under `COC(=O)c1ccc(-c2cc(N3CCOC[C@H]3C)nc3c(-c4ccn[nH]4)nccc23)[nH]1` [Example 120, methyl 5-{2-[(3R)-3-methylmorpholin-4-yl]-8-(1H-pyrazol-5-yl)-1,7-naphthyridin-4-yl}-1H-pyrrole-2-carboxylate], 0.354 µM; under `C[C@@H]1COCCN1c1cc(-c2ccns2)c2ccnc(-c3ccn[nH]3)c2n1` [Example 121, 2-[(3R)-3-methylmorpholin-4-yl]-8-(1H-pyrazol-5-yl)-4-(1,2-thiazol-5-yl)-1,7-naphthyridine], 0.352 µM.
Under `C[C@@H]1COCCN1c1cc(-c2ccccc2N(C)C)c2ccnc(-c3ccn[nH]3)c2n1` [Example 122, N,N-dimethyl-2-{2-[(3R)-3-methylmorpholin-4-yl]-8-(1H-pyrazol-5-yl)-1,7-naphthyridin-4-yl}aniline] stands 0.706 µM; under `C[C@@H]1COCCN1c1cc(-c2ccc(F)cc2F)c2ccnc(-c3ccn[nH]3)c2n1` [Example 123, 4-(2,4-difluorophenyl)-2-[(3R)-3-methylmorpholin-4-yl]-8-(1H-pyrazol-5-yl)-1,7-naphthyridine], 0.431 µM.
